Data taken from EP4745134A1 (Jiangsu Yahong Meditech Co., Ltd., priority 2023, dated 2025).
Read-outs that look alike come from different tables or passages of the source.

Experiments:
PRMT5-MTA = PRMT5-MTA (Homo sapiens, UniProt O14744); test: Enzymatic inhibitory activity against PRMT5-MTA (AlphaScreen); type: biochemical
Outline: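 PRMT5/[…] (1 nM) was preincubated for 30 min at room temperature with 1 µM […] and 2.5 µM SAM, then exposed to compound (10-point, 3-fold from 1000 nM) for 15 min at 23 °C. Histone H4 substrate (5 nM) was added and reacted for 45 min at 23 °C. Symmetric dimethyl-R3 H4 was detected by AlphaScreen and IC50 calculated.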

HCT116 MTAP KO cells = test: Inhibitory activity against cell proliferation (CellTiter Glo, 6 days), HCT116 MTAP KO; type: cell-based; settings: for IC50: HCT116 MTAP KO cells, 6 days, CellTiter Glo, read-out: HCT116 MTAP KO IC50; for Selectivity HCT 116-WT/ HCT116 MTAP KO: ratio of IC50 HCT116-WT / HCT116 MTAP KO
Outline: (§1)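 250 cells/well, McCoy's 5A + 10% FBS, o/n 37°C 5% CO2; cpd 8-pt 4-fold from 10000 nM, 6 d; CTG lum on day 7; IC50 vs DMSO.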

HCT116-WT cells = test: Inhibitory activity against cell proliferation (CellTiter Glo, 6 days), HCT116-WT; type: cell-based; settings: HCT116-WT cells, 6 days, CellTiter Glo, read-out: HCT116-WT IC50
Outline: as §1

PRMT5-MTA, sequence (O14744 whole entry): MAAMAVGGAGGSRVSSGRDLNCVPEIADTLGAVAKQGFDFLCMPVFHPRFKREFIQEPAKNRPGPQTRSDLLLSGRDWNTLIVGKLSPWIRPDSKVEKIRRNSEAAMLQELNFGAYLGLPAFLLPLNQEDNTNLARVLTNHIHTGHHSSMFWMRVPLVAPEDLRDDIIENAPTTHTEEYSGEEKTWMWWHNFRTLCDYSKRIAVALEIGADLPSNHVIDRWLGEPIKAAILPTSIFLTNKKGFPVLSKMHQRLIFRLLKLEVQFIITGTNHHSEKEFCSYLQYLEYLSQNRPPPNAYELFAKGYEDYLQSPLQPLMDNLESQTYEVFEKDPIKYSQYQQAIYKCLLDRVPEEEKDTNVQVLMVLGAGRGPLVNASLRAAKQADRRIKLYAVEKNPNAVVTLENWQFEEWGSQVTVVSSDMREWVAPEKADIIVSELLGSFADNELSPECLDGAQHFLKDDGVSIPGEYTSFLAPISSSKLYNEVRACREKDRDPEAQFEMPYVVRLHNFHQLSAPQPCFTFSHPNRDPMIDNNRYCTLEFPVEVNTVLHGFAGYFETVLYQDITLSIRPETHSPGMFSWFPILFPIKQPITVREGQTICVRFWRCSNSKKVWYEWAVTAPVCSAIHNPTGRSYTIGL
PRMT5-MTA, sequence (Q9BQA1 whole entry partner): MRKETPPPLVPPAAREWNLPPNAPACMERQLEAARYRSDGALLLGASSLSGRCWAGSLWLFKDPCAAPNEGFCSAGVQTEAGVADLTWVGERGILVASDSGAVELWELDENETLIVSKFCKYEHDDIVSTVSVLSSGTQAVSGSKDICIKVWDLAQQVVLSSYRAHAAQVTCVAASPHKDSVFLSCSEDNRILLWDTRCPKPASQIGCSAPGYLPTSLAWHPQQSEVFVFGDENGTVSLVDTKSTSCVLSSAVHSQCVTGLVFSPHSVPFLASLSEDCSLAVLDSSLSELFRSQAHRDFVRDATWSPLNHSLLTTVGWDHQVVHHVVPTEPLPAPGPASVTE

IC50 (HCT116 MTAP KO cells) [nM]	IC50 (HCT116-WT cells) [nM]	SMILES	IC50 (PRMT5-MTA; read-out: IC50) [nM]	IC50 (HCT116 MTAP KO cells; Homo sapiens, HCT-116, 144 h) [nM]	Selectivity HCT 116-WT/ HCT116 MTAP KO (HCT116 MTAP KO cells)	IC50 (HCT116-WT cells; 144 h) [nM]	IC50 (PRMT5-MTA) [nM]
–	–	Cc1cc2cc(C(=O)N(Cc3ccc(C4=CCOC4)cn3)N(C)c3ncccn3)ccc2nc1N [Example 186, 2-amino-N-((5-(2,5-dihydrofuran-3-yl)pyridin-2-yl)methyl)-N',3-dimethyl-N'-(pyrimidin-2-yl)quinoline-6-carbohydrazide]	5.6	122	23.20	2830	–
–	–	Cc1cc2nc(N)c3cnn(C)c3c2cc1C(=O)N1CC(C)CN1c1ncccc1Cl (stereo not drawn) [Example 369, (4-amino-1,7-dimethyl-1H-pyrazolo[4,3-c]quinolin-8-yl)(2-(3-chloropyridin-2-yl)-4-methylpyrazolidin-1-yl)methanone]	3.9	84	32.12	2700	–
–	–	Cc1cc2nc(N)c3cnn(C)c3c2cc1C(=O)N1CCC(C)N1c1ncccn1 (stereo not drawn) [Example 374, (4-amino-1,7-dimethyl-1H-pyrazolo[4,3-c]quinolin-8-yl)(3-methyl-2-(pyrimidin-2-yl)pyrazolidin-1-yl)methanone]	8.1	210	–	> 10000	–
–	–	Cn1ncc2c(N)nc3cc(Cl)c(C(=O)N4CC5(CN4c4ncc(Br)cc4F)CC(F)(F)C5)cc3c21 [Example 413, (4-amino-7-chloro-1-methyl-1H-pyrazolo [4,3-c]quinolin-8-yl)(7-(5-bromo-3-fluor opyridin-2-yl)-2,2-difluoro-6,7-diazaspiro[3.4]octan-6-yl)methanone]	4.3	26	15.00	390	–
–	–	Cc1cc2cc(C(=O)N(Cc3ccc(C(C)O)cn3)N(C)c3ncccn3)ccc2nc1N (stereo not drawn) [Example 295, 2-amino-N-((5-(1-hydroxyethyl)pyridin-2-yl)methyl)-N',3-dimethyl-N-(pyrimidin-2-yl) quinoline-6-carbohydrazide]	2	399	12.38	4940	–
–	–	Cc1cc2cc(C(=O)N(Cc3ccc(C(F)(F)F)cn3)N(C)c3c(F)cccc3F)ccc2nc1N [Compound 116, 2-amino-N'-(2,6-difluorophenyl)-N',3-di methyl-N-((5-(trifluoromethyl)pyridin-2-yl)methyl)quinoline-6-carbohydrazide]	4.7	78	37.85	2950	–
–	–	Cc1cc2cc(C(=O)N(Cc3c(F)cc(Br)cc3F)N(C)c3ncccn3)ccc2nc1N [Example 278, 2-amino-N-(4-bromo-2,6-difluorobenzyl) -N',3-dimethyl-N'-(pyrimidin-2-yl)quinoline-6-carbohydrazide]	1.5	28	14.11	395	–
–	–	COC1CN(C(=O)c2cc3c(cc2Cl)nc(N)c2cnn(C)c23)N(c2cccc(F)n2)C1 (stereo not drawn) [Example 448, (4-amino-7-chloro-1-methyl-1H-pyrazolo [4,3-c]quinolin-8-yl)(2-(6-fluoropyridin-2-yl)-4-methoxypyrazolidin-1-yl)methanone]	5.1	27	21.70	586	–
–	–	Cc1cc2nc(N)c3cnn(C)c3c2cc1C(=O)N1CC(C)CN1c1ncc(C2CC2)cc1F (stereo not drawn) [Example 489]	–	54	26.04	1410	4.8
–	–	Cc1cc2nc(N)c3cnn(C)c3c2cc1C(=O)N1CCCN1c1ncc(-c2cccnc2)cc1F [Example 473, (4-amino-1,7-dimethyl-1H-pyrazolo[4,3-c]quinolin-8-yl)(2-(5-fluoro-[3,3'-bipyridine]-6-yl)pyrazolidin-1-yl)methanone]	9	91	56.09	5100	–
–	–	Cc1cc2cc(C(=O)N(Cc3ccc(-c4ccn(C)n4)cn3)N(C)c3ncccn3)ccc2nc1N [Example 168, 2-amino-N',3-dimethyl-N-((5-(1-methyl-1H-pyrazol-3-yl)pyridin-2-yl)methyl)-N'-(pyrimidin-2-yl)quinoline-6-carbohydrazide]	2.6	194	13.26	2570	–
–	–	Cc1cc2nc(N)c3cnn(C)c3c2cc1C(=O)N1CCCN1c1ncc(-c2cncs2)cc1F [Example 474, (4-amino-1,7-dimethyl-1H-pyrazolo[4,3-c]quinolin-8-yl)(2-(3-fluoro-5-(thiazol-5-yl)pyridin-2-yl)pyrazolidin-1-yl)methanone]	7	28	33.18	929	–
–	–	COC1(c2ccc(CN(C(=O)c3ccc4nc(N)c(C)cc4c3)N(C)c3ncccn3)nc2)COC1 [Example 284, 2-amino-N-((5-(3-methoxyoxetan-3-yl)pyridin-2-yl)methyl)-N',3-dimethyl-N'-(pyrimidin-2-yl)quinoline-6-carbohydrazide]	2.3	194	17.71	3440	–
–	–	Cc1cc2nc(N)c3cnn(C)c3c2cc1C(=O)N1CC(C)CN1c1ncc(Cl)cc1F (stereo not drawn) [Example 394, (4-amino-1,7-dimethyl-1H-pyrazolo[4,3-c]quinolin-8-yl)(2-(5-chloro-3-fluoropyridin-2-yl)-4-methylpyrazolidin-1-yl)metha none]	–	16	44.81	717	–
39	863	Cc1cc2cc(C(=O)N(Cc3ccc(-c4cnn(C(F)F)c4)cn3)N(C)c3ncccn3)ccc2nc1N [Example 213, 2-amino-N-((5-(1-(difluoromethyl)-1H-pyrazol-4-yl)pyridin-2-yl)methyl)-N',3-di methyl-N'-(pyrimidin-2-yl)quinoline-6-c arbohydrazide]	–	–	22.13	–	–
–	–	CC1OCc2c1c(N)nc1ccc(C(=O)N(Cc3ccc(C(F)(F)F)cn3)N(C)c3ncccn3)cc21 (stereo not drawn) [Example 70, 4-amino-N',3-dimethyl-N'-(pyrimidin-2-yl)-N-((5-(trifluoromethyl)pyridin-2-yl)methyl)-1,3-dihydrofuro[3,4-c]quinoline-8-carbohydrazide]	–	21	10.57	222	–
–	–	Cc1cc2cc(C(=O)N(Cc3ccc(-c4cc[nH]c(=O)c4)cn3)N(C)c3ncccn3)ccc2nc1N [Example 138, 2-amino-N',3-dimethyl-N-((2'-oxo-1',2'-dihydro-[3,4'-bipyridine]-6-yl)methyl)-N'-(pyrimidin-2-yl)quinoline-6-carbohydrazide]	–	290	11.79	3420	–
–	–	Cc1cc2nc(N)c3cnn(C)c3c2cc1C(=O)N1CCCN1c1ncc(-c2cnn(C)c2)cc1F [Example 471, (4-amino-1,7-dimethyl-1H-pyrazolo[4,3-c]quinolin-8-yl)(2-(3-fluoro-5-(1-methyl-1H-pyrazol-4-yl)pyridin-2-yl)pyrazolidin-1-yl)methanone]	–	97	60.37	5860	–
–	–	Cc1cc2cc(C(=O)N(Cc3ccc4sc(C5=CCN(C)CC5)nc4c3)N(C)c3ncccn3)ccc2nc1N [Example 195, 2-amino-N',3-dimethyl-N-((2-(1-methyl-1,2,3,6-tetrahydropyridin-4-yl)benzo[d]thiazol-5-yl)methyl)-N'-(pyrimidin-2-yl)qui noline-6-carbohydrazide]	–	216	14.53	3140	–
–	–	Cc1cc2cc(C(=O)N(Cc3ccc4sc(C5CCN(C)CC5)nc4c3)N(C)c3ncccn3)ccc2nc1N [Example 219]	–	216	14.53	3140	–
–	–	Cc1cc2cc(C(=O)N(Cc3ccc(-c4cnn(C)n4)cn3)N(C)c3ncccn3)ccc2nc1N [Example 228, 2-amino-N',3-dimethyl-N-((5-(2-methyl-2H-1,2,3-triazol-4-yl)pyridin-2-yl)methyl)-N'-(pyrimidin-2-yl)quinoline-6-carbohy drazide]	–	51	25.92	1320	–
–	–	CC1CN(C(=O)c2cc3c(cc2F)nc(N)c2cnn(C)c23)N(c2ncccc2F)C1 (single isomer, unassigned) [Example 467]	–	94	32.33	3040	–
–	–	Cc1cc2cc(C(=O)N(Cc3ccc(C(F)(F)C(F)(F)F)cn3)N(C)c3ncccn3)ccc2nc1N [Example 293, 2-amino-N,3-dimethyl-N-((5-(perfluoroethyl)pyridin-2-yl)methyl)-N-(pyrimidin-2-yl)q uinoline-6-carbohydrazide]	–	25	26.64	666	–
–	–	Cc1cc2cc(C(=O)N(Cc3ccc(-c4ccc(N(C)C(C)C)nc4)cn3)N(C)c3ncccn3)ccc2nc1N [Example 257, 2-amino-N-((6'-(isopropyl(methyl)amino) -[3,3'-bipyridin]-6-yl)methyl)-N',3-dimet hyl-N'-(pyrimidin-2-yl)quinoline-6-carbo hydrazide]	–	76	13.42	1020	–
